Data: ChEMBL document CHEMBL1201862, “PubChem BioAssay data set” (2004)
Activity calls are given as the source filed them.

Legend:
[1] = tested on: CHO-K1; assay: (§1) Counterscreen for antagonists of the orexin 1 receptor (OX1R; HCRTR1): Homogeneous time resolved fluorescence (HTRF)-based cell-based dose response assay to identify antagonists of the parental CHO-K1 cell line. [Related pubchem assays (depositor defined):AID434989, AID435008, AID463079, AID485270, AID492963, AID492964, AID492965, AID493232, AID504699, AID504701]; format: functional; conditions: Cricetulus griseus
[2] = molecular target: T1, Orexin/Hypocretin receptor type 1 (Homo sapiens, UniProt O43613); assay: Homogeneous Time Resolved Fluorescence (HTRF)-based cell-based high throughput dose response assay for antagonists of the orexin 1 receptor (OX1R; HCRTR1). [Related pubchem assays (depositor defined):AID434989, AID435008, AID463079, AID485270, AID492963, AID492964, AID492965, AID493232, AID504717, AID504718]; format: functional
T1 sequence (O43613 whole entry): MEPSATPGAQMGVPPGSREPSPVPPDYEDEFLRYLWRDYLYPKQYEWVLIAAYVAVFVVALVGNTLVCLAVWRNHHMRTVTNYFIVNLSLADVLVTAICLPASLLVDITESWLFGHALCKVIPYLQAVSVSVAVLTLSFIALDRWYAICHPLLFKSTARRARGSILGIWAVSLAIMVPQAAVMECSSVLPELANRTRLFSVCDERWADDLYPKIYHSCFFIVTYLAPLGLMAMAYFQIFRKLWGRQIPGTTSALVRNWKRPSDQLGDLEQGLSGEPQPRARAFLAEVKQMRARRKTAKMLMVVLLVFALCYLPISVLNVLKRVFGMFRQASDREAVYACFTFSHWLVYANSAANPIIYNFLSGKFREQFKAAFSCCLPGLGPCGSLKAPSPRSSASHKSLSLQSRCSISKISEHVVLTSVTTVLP

[3] = molecular target: T2, Orexin receptor type 2 (Homo sapiens, UniProt O43614); assay: Counterscreen assay for antagonists of the orexin 1 receptor (OX1R; HCRTR1): Homogeneous Time Resolved Fluorescence (HTRF)-based cell-based dose response assay for antagonists of the orexin 2 receptor (OX2R; HCRTR2), run by assay provider.; format: functional
[4] = tested on: BJ; assay: cells; format: functional, cell-based, Homo sapiens; conditions: Homo sapiens, BJ
[5] = cytotoxicity toward DRD oncogenic fibroblasts, dose response, cell-based, non-viral oncogenic, luminescence (AID 1934); format: functional; conditions: Homo sapiens
[6] = molecular target: Paired box protein Pax-8 (Homo sapiens, UniProt Q06710); assay: inhibitors of PAX8-driven TPO luciferase reporter, dose response, RMG-I cells, cherry-pick (AID 687027); format: functional, cell-based;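 also: luciferase reporter driven by Pax8 target thyroperoxidase promoter measured by SteadyGlo luminescence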
[7] = tested on: BJ; assay: cytotoxicity toward BJ-TERT fibroblasts, dose response, cell-based, RAS-independent, luminescence (AID 1933); format: functional, Homo sapiens; conditions: Homo sapiens, BJ
[8] = molecular target: T2, Orexin receptor type 2; assay: Counterscreen assay for antagonists of the orexin 1 receptor (OX1R; HCRTR1): Fluorescence-based cell-based dose response assay for antagonists of the orexin 2 receptor (OX2R; HCRTR2), run by assay provider.; format: functional
[9] = tested on: BJ; assay: cytotoxicity toward BJ-TERT-LT-ST fibroblasts, dose response, cell-based, RAS-independent, luminescence (AID 1935); format: functional, Homo sapiens; conditions: Homo sapiens, BJ;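 also: BJ fibroblasts immortalized with TERT plus LT and ST oncogenes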
[10] = as §1, with “Fluorescence-based” for “Homogeneous time resolved fluorescence (HTRF)-based”, “cell-based high throughput” for “cell-based”, “CHO” for “CHO-K1”; format: functional
[11] = Luminescence Cell-Based Dose Retest to Confirm Inhibitors of Cancer Stem Cells. [Related pubchem assays (depositor defined):AID2717, AID2721]; format: functional; conditions: Homo sapiens
[12] = molecular target: T1, Orexin/Hypocretin receptor type 1; assay: Fluorescence-based cell-based high throughput dose response assay for antagonists of the orexin 1 receptor (OX1R; HCRTR1). [Related pubchem assays (depositor defined):AID434989, AID435008, AID463079, AID485270, AID492963, AID492964, AID492965, AID493232, AID504717, AID504718]; format: functional
[13] = cytotoxicity in HEK-293T cells, dose response, cytotoxicity control for TCR NF-kB inhibitor project, luminescence, T-cell screen hits (AID 489026); format: functional, cell-based;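 also: cells exposed to compound about 14 hours before the viability readout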
[14] = molecular target: T3, Type-1 angiotensin II receptor (Homo sapiens, UniProt P30556); assay: AT1 receptor antagonists, dose response, selectivity assay for APJ receptor antagonist project, cell-based, uHTS hits (AID 463214); format: functional;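 also: antagonist potency against angiotensin II stimulated AT1 response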
T3 sequence (P30556 whole entry): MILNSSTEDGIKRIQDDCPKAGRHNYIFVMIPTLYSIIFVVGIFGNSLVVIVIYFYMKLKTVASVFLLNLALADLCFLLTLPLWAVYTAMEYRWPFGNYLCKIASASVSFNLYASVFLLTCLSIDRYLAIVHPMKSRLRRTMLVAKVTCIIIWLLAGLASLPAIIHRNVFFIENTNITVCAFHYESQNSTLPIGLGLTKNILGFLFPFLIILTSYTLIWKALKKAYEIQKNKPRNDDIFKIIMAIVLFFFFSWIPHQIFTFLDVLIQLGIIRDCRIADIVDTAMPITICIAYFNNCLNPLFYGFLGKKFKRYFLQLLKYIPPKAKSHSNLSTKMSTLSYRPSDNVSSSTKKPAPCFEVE

[15] = cytotoxicity toward NIH3T3 fibroblasts, dose response, counter-screen, cell-based, ATP luminescence, mouse fibroblasts (AID 2010); format: functional;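 also: cells exposed to compound for about 90 hours before reading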
[16] = tested on: HEK293; assay: cytotoxicity in HEK293T NF-kB-Luc cells, SAR follow-up, cytotoxicity control for NF-kB activator project, cell-based, resazurin fluorescence (AID 493251); format: functional; conditions: Homo sapiens
[17] = inhibitors of intracellular T. cruzi replication, confirmation, NIH3T3 host cells, beta-gal luminescence (AID 2044); format: functional, cell-based;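 also: intracellular parasites grown in NIH/3T3 mouse fibroblasts as host cells; luminescent beta-galactosidase reporter signal from transgenic T. cruzi replicating inside host cells; inhibitors lower the luminescence signal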
[18] = tested on: Streptococcus; assay: Group A Streptococcus viability loss, dose response, counter-screen for streptokinase expression inhibitor project, luminescence, BacTiterGlo (AID 1915); format: functional, organism-based;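 also: potency for reduction of bacterial viability or growth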
[19] = Luminescence-based dose response cell-based high throughput screening assay for cytotoxic compounds using the IEC-6 intestinal epithelial cell line. [Related pubchem assays: 1858 (Summary AID.), 1825 (Counterscreen.), 1907 (Confirmation screen.)]; format: functional
[20] = HepG2 cell cytotoxicity, dose response, cytotoxicity control for Shn3 inhibitor project, CellTiter-Glo, cherry-picked (AID 624134); format: functional, cell-based
[21] = molecular target: Beta-galactosidase (Escherichia coli, UniProt Q8VNN2); assay: PubChem AID 485352; format: functional
[22] = control 3'UTR Renilla luciferase suppression, dose response, counter-screen for Shn3 inhibitor project, cell-based, Clone20-Shn3RL, cherry-picked (AID 624133); format: functional
[23] = molecular target: T4, Heat shock factor protein 1 (Mus musculus, UniProt P38532); assay: inhibition of MG132-induced HSE-luciferase signal, confirmation, cell-based, NIH3T3, luminescence, dose retest (AID 2382); format: functional;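 also: NIH3T3 fibroblasts with HSF1-driven luciferase reporter stressed by proteasome inhibitor MG132; luminescence from HSF1-driven luciferase expression after 8 hours of MG132 stress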
T4 sequence (P38532 whole entry): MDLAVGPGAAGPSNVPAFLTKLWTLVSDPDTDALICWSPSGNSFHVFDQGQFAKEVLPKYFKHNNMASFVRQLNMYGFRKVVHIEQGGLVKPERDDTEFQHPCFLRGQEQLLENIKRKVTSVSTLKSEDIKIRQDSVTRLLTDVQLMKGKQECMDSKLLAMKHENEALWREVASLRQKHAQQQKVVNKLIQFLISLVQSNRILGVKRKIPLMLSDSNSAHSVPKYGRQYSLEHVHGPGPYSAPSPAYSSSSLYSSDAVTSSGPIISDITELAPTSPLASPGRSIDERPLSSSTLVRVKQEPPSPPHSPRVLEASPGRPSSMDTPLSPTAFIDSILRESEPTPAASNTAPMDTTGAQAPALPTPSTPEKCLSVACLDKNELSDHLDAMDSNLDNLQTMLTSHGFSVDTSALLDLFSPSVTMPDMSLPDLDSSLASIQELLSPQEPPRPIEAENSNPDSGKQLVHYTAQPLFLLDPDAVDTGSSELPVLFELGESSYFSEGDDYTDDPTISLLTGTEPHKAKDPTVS

[24] = tested on: Jurkat; assay: SAR Analysis of small molecule inhibitors of both B-cell and T-cell specific antigen receptor-induced NF-kB activation in a Jurkat cell line using a luminescence assay. [Related pubchem assays (depositor defined):AID435003, AID435022, AID465, AID489029]; format: functional, cell-based; conditions: Homo sapiens
[25] = tested on: HEK293; assay: SAR Analysis of small molecule inhibitors of both B-cell and T-cell specific antigen receptor-induced NF-kB activation in a HEK-293T cell line using a luminescence assay. [Related pubchem assays (depositor defined):AID435003, AID435022, AID465, AID489019, AID489029]; format: functional, cell-based; conditions: Homo sapiens
[26] = Fluorescence-based cell-based high throughput dose response assay for inhibitors of the interaction of nucleotide-binding oligomerization domain containing 2 (NOD2) and the receptor-interacting serine-threonine kinase 2 (RIPK2).; format: functional; conditions: Homo sapiens
[27] = molecular target: T5, Streptokinase A (Streptococcus pyogenes serotype M1, UniProt P10520); assay: S. pyogenes streptokinase expression inhibitors, potency, dose response, plasminogen activation absorbance, OD405 (AID 1914); format: functional, Streptococcus pyogenes M1 GAS;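 also: secreted streptokinase activity via plasminogen activation per viability signal from cell pellet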
T5 sequence (P10520 whole entry): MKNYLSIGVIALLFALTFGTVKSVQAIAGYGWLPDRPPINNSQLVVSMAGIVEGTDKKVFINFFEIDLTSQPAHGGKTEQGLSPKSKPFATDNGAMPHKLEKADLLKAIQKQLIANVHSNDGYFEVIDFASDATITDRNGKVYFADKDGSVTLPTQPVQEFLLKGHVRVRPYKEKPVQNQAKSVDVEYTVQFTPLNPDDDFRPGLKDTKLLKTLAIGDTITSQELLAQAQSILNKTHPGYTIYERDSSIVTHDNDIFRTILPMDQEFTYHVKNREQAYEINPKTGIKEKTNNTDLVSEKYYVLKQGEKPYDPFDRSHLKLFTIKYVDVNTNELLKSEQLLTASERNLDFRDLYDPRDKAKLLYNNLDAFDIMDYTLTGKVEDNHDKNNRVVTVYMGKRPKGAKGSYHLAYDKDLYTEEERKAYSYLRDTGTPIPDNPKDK

[28] = Shn3 3'UTR reporter inhibitors, dose response, cell-based, Clone20 osteoblasts, firefly luciferase, cherry-picked (AID 624132); format: functional;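 also: firefly luciferase luminescence from reporter carrying the Shn3 3'UTR in osteoblasts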
[29] = tested on: Streptococcus sp. 'group A'; assay: growth inhibition of control SK(-) GAS strain, dose response, counter-screen for streptokinase expression inhibitor project, luminescence, kanamycin, BacTiterGlo, confirmation (AID 1900); format: functional, organism-based

T2 sequence (O43614 whole entry): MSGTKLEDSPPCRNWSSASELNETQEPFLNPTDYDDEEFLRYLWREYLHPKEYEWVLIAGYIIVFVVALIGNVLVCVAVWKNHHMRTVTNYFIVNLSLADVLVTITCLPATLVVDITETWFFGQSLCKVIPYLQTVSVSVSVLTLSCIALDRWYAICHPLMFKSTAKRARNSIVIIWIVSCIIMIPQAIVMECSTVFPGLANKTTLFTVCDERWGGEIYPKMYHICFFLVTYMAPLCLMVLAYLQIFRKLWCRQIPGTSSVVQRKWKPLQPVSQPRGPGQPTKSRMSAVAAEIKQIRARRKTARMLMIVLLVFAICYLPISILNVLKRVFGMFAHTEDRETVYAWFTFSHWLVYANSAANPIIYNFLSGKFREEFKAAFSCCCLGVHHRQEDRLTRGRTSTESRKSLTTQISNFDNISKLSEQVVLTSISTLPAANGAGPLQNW
Paired box protein Pax-8, sequence (Q06710 whole entry): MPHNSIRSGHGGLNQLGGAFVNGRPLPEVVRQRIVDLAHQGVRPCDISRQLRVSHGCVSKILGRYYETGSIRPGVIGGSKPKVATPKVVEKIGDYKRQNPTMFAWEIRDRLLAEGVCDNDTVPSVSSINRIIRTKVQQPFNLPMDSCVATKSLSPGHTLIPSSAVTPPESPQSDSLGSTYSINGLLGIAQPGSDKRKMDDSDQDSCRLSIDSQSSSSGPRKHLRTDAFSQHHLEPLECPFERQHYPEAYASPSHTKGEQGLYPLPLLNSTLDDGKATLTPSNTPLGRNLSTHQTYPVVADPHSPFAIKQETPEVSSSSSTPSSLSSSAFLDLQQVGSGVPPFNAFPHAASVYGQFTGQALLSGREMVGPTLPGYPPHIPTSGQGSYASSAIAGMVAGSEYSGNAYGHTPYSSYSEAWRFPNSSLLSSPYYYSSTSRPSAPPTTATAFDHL
Beta-galactosidase, sequence (Q8VNN2 whole entry): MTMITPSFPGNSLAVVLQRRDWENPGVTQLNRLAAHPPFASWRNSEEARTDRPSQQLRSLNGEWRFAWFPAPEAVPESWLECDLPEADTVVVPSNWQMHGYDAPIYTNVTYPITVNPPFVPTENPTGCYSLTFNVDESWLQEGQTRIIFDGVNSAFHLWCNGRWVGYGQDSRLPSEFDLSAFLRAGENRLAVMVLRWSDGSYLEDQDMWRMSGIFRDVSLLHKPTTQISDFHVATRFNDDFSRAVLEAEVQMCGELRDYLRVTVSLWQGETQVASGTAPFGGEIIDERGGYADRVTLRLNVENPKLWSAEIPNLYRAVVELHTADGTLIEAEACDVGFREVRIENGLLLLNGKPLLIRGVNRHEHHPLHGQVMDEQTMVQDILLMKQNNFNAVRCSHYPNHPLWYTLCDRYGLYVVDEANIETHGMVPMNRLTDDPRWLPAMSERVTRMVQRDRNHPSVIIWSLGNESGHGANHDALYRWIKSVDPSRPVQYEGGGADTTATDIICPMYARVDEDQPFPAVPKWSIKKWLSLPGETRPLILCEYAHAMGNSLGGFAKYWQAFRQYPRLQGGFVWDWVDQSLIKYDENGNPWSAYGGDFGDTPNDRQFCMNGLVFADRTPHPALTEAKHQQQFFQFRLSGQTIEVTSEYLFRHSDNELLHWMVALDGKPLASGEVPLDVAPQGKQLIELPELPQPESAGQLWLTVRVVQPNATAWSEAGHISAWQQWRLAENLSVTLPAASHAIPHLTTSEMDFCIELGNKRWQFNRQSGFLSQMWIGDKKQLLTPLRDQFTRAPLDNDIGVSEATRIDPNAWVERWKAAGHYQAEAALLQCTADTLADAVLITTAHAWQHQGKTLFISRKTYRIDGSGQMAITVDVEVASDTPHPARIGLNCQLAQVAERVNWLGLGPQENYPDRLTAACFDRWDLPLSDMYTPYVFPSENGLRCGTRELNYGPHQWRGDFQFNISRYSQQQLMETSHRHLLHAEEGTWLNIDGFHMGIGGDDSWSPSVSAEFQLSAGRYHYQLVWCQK

CCn1c2ccccc2c2cc(NC(=O)c3cc(OC)cc(OC)c3)ccc21
inconclusive: EC50 [9] 0.365 µM
active: IC50 [2] 0.554 µM | EC50 [4] 22.8 µM | EC50 [5] 0.545 µM | AC50 [6] 4.74 µM | EC50 [7] 0.431 µM | AC50 [11] < 0.16 µM | IC50 [12] 1.38 µM
inactive: IC50 [1] > 66.2 µM | IC50 [3] > 50 µM | IC50 [8] 21.7 µM | IC50 [10] > 49.8 µM | IC50 [13] > 80 µM

COc1cc(NS(=O)(=O)c2ccc(C)cc2)c2ncccc2c1
> 150 µM (not active): EC50 [27]
inactive: IC50 [16] > 80 µM | EC50 [21] > 40 µM | IC50 [25] > 79 µM | IC50 [13] > 80 µM
active: IC50 [14] 3.88 µM | EC50 [15] 1.45 µM | EC50 [17] 0.524 µM | EC50 [18] 21.7 µM | IC50 [19] 1.58 µM | AC50 [20] 9.77 µM | AC50 [22] 13.8 µM | EC50 [23] 24.3 µM | IC50 [24] 1.52 µM | IC50 [26] 5.53 µM | AC50 [28] 3.35 µM | EC50 [29] 2.6 µM
